Legend:
HCV replicon cells = assay: HCV replicon FRET / luciferase assay; type: cell-based; settings: Hepatitis C virus; HCV replicon cells, FRET or luciferase readout; read-out: EC50
How it was run: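 Replicon cells (with or without Renilla luciferase reporter) incubated with titrated compounds at 37 °C; Alamar blue read for cytotoxicity first. NS3 protease activity read kinetically with 20 μM EDANS/DABCYL FRET peptide in lysis reagent plus 150 mM NaCl (ex 340/em 490), or by Dual-Glo luciferase. EC50 = 50% signal reduction after protease-inhibitor background subtraction.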

HCV NS5B = target: T1, HCV NS5B (Hepatitis C virus genotype 1b, UniProt Q9WMX2); assay: HCV NS5B RdRp enzyme assay (standard / modified); type: biochemical; settings: HCV RdRp genotype 1b enzyme; read-out: IC50
T1 construct: The protein was expressed with an 18 amino acid C-terminal truncation to enhance the solubility; made in house; host or cells: E. coli BL21 (DE3)
How it was run: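 NS5B genotype 1b, 18-aa C-terminal truncation, E. coli-expressed; polyA template with biotinylated oligo-dT12 primer, 3H-UTP 0.29 μM, 30° C, SPA read-out in 20 mM Hepes pH 7.5, 2% DMSO. Standard: 28 nM enzyme, 6 nM template, 180 nM primer, 60 min; modified: 14 nM enzyme, 0.2 nM template, 20 nM bead-precaptured primer, 4 h. IC50 from seven concentrations.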

T1 sequence (Q9WMX2 2420-2992): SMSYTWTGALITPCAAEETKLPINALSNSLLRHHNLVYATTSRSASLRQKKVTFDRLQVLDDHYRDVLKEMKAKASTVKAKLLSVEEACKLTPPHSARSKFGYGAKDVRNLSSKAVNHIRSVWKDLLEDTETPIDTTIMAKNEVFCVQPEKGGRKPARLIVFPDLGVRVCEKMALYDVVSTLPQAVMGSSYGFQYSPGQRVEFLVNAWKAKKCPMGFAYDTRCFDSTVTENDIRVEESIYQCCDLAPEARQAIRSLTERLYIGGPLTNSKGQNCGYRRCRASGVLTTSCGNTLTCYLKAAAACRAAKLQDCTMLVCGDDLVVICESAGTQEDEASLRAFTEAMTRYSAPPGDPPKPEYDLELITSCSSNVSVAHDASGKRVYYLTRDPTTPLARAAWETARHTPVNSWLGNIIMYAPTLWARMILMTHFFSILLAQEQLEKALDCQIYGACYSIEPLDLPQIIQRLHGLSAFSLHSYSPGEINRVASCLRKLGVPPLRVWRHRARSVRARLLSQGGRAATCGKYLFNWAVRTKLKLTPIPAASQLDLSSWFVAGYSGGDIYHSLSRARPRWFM

Structure (SMILES)	EC50 (HCV replicon cells) [nM]	IC50 (HCV NS5B) [nM]
COc1ccc2c(c1)C=C(c1c(C(=O)N3CCOCC3)cnn1C(C)C)Cn1c-2c(C2CCCCC2)c2ccc(C(=O)NS(=O)(=O)N(C)C)cc21	1 to 500	1 to 500
COC(=O)c1ncoc1C1=Cc2cc(OC)ccc2-c2c(C3CCCCC3)c3ccc(C(=O)OC(C)(C)C)cc3n2C1	> 40	> 40
COc1ccc2c(c1)C=C(c1ocnc1C(=O)O)Cn1c-2c(C2CCCCC2)c2ccc(C(=O)OC(C)(C)C)cc21	> 40	> 40
COc1ccc2c(c1)C=C(c1c(C(=O)O)cnn1C)Cn1c-2c(C2CCCCC2)c2ccc(C(=O)O)cc21	> 40	1 to 500
COc1ccc2c(c1)C=C(c1ocnc1C(=O)N1CCOCC1)Cn1c-2c(C2CCCCC2)c2ccc(C(=O)OC(C)(C)C)cc21	> 40	> 40
CCC(C)S(=O)(=O)NC(=O)c1ccc2c(C3CCCCC3)c3n(c2c1)CC(c1c(C(=O)N2C[C@@H](C)O[C@@H](C)C2)cnn1C)=Cc1cc(OC)ccc1-3 (some centres unmarked)	1 to 500	1 to 500
CCC(C)S(=O)(=O)NC(=O)c1ccc2c(C3CCCCC3)c3n(c2c1)CC(c1c(C(=O)N2CC(C)N(C)C(C)C2)cnn1C)=Cc1cc(OC)ccc1-3 (centres unmarked)	1 to 500	1 to 500
CCC(C)S(=O)(=O)NC(=O)c1ccc2c(C3CCCCC3)c3n(c2c1)CC(c1c(C(=O)N2CCCC(N(C)C)C2)cnn1C)=Cc1cc(OC)ccc1-3 (centres unmarked)	1 to 500	1 to 500
CCC(C)S(=O)(=O)NC(=O)c1ccc2c(C3CCCCC3)c3n(c2c1)CC(c1c(C(=O)N2CCOC(COC)C2)cnn1C)=Cc1cc(OC)ccc1-3 (centres unmarked)	1 to 500	1 to 500
COc1ccc2c(c1)C=C(c1c(C(=O)N3CCOCC3)cnn1C)Cn1c-2c(C2CCCCC2)c2ccc(C(=O)NS(=O)(=O)CC(C)C)cc21	1 to 500	1 to 500
COc1ccc2c(c1)C=C(c1c(C(=O)N3C[C@@H](C)O[C@@H](C)C3)cnn1C)Cn1c-2c(C2CCCCC2)c2ccc(C(=O)NS(=O)(=O)CC(C)C)cc21	1 to 500	1 to 500
COC[C@@H]1CN(C(=O)c2cnn(C)c2C2=Cc3cc(OC)ccc3-c3c(C4CCCCC4)c4ccc(C(=O)NS(=O)(=O)CC(C)C)cc4n3C2)CCO1	1 to 500	1 to 500
COC[C@@H]1CN(C(=O)c2cnn(C)c2C2=Cc3cc(OC)ccc3-c3c(C4CCCCC4)c4ccc(C(=O)NS(=O)(=O)C5CCC5)cc4n3C2)CCO1	1 to 500	1 to 500
CCN1C[C@@H]2C[C@H]1CN2C(=O)c1cnn(C)c1C1=Cc2cc(OC)ccc2-c2c(C3CCCCC3)c3ccc(C(=O)NS(=O)(=O)C4CCC4)cc3n2C1	1 to 500	1 to 500
COc1ccc2c(c1)C=C(c1c(C(=O)N3CCCC(N(C)C)C3)cnn1C)Cn1c-2c(C2CCCCC2)c2ccc(C(=O)NS(=O)(=O)C3CCC3)cc21 (centres unmarked)	1 to 500	1 to 500
COc1ccc2c(c1)C=C(c1c(C(=O)N3CCOCC3)cnn1C)Cn1c-2c(C2CCCCC2)c2ccc(C(=O)NS(=O)(=O)C3CCC3)cc21	1 to 500	1 to 500
COc1ccc2c(c1)C=C(c1c(C(=O)N3CCN4CCCC4C3)cnn1C)Cn1c-2c(C2CCCCC2)c2ccc(C(=O)NS(=O)(=O)C3CCC3)cc21 (centres unmarked)	1 to 500	1 to 500
COc1ccc2c(c1)C=C(c1sccc1C(=O)O)Cn1c-2c(C2CCCCC2)c2ccc(C(=O)NS(=O)(=O)C(C)C)cc21	> 40	1 to 500
COc1ccc2c(c1)C=C(c1c(C(=O)N(CC3CCCO3)C(C)C)cnn1C)Cn1c-2c(C2CCCCC2)c2ccc(C(=O)NS(=O)(=O)C(C)C)cc21 (centres unmarked)	1 to 500	1 to 500
COc1ccc2c(c1)C=C(c1c(C(=O)N3CCOCC3)cnn1C(C)C)Cn1c-2c(C2CCCCC2)c2ccc(C(=O)NS(=O)(=O)C(C)C)cc21	1 to 500	1 to 500
COc1ccc2c(c1)C=C(c1c(C(=O)N3CC(C)OC(C)C3)cnn1C(C)C)Cn1c-2c(C2CCCCC2)c2ccc(C(=O)NS(=O)(=O)C(C)C)cc21 (centres unmarked)	1 to 500	1 to 500
CCN1C[C@@H]2CC1CN2C(=O)c1cnn(C(C)C)c1C1=Cc2cc(OC)ccc2-c2c(C3CCCCC3)c3ccc(C(=O)NS(=O)(=O)C(C)C)cc3n2C1	1 to 500	1 to 500

Structure (SMILES)	EC50 (HCV replicon cells) [nM]	IC50 (HCV NS5B) [nM]
COc1ccc2c(c1)C=C(c1c(C(=O)N3C4CC3CN(C)C4)cnn1C(C)C)Cn1c-2c(C2CCCCC2)c2ccc(C(=O)NS(=O)(=O)C(C)C)cc21	1 to 500	1 to 500
COc1ccc2c(c1)C=C(c1c(C(=O)N3CC(C)N(C)C(C)C3)cnn1C(C)C)Cn1c-2c(C2CCCCC2)c2ccc(C(=O)NS(=O)(=O)C(C)C)cc21 (centres unmarked)	1 to 500	1 to 500
CCN1C[C@H]2C[C@@H]1CN2C(=O)c1cnn(C(C)C)c1C1=Cc2cc(OC)ccc2-c2c(C3CCCCC3)c3ccc(C(=O)NS(=O)(=O)CC(C)C)cc3n2C1	1 to 500	1 to 500
COc1ccc2c(c1)C=C(c1c(C(=O)N3C[C@@H](C)O[C@@H](C)C3)cnn1C(C)C)Cn1c-2c(C2CCCCC2)c2ccc(C(=O)NS(=O)(=O)CC(C)C)cc21	1 to 500	1 to 500
COc1ccc2c(c1)C=C(c1c(C(=O)N3CCOCC3)cnn1C(C)C)Cn1c-2c(C2CCCCC2)c2ccc(C(=O)NS(=O)(=O)CC(C)C)cc21	1 to 500	1 to 500
COC[C@@H]1CN(C(=O)c2cnn(C(C)C)c2C2=Cc3cc(OC)ccc3-c3c(C4CCCCC4)c4ccc(C(=O)NS(=O)(=O)CC(C)C)cc4n3C2)CCO1	1 to 500	1 to 500
COc1ccc2c(c1)C=C(c1c(C(=O)N3C[C@@H](C)N(C)[C@@H](C)C3)cnn1C(C)C)Cn1c-2c(C2CCCCC2)c2ccc(C(=O)NS(=O)(=O)CC(C)C)cc21	1 to 500	1 to 500
COC[C@@H]1CN(C(=O)c2cnn(C(C)C)c2C2=Cc3cc(OC)ccc3-c3c(C4CCCCC4)c4ccc(C(=O)NS(=O)(=O)C(C)C)cc4n3C2)CCO1	1 to 500	1 to 500
COC(=O)c1c(C)nn(C)c1C1=Cc2cc(OC)ccc2-c2c(C3CCCCC3)c3ccc(C(=O)O)cc3n2C1	1 to 500	1 to 500
COc1ccc2c(c1)C=C(c1c(C(=O)O)c(C)nn1C)Cn1c-2c(C2CCCCC2)c2ccc(C(=O)NS(=O)(=O)CC(C)C)cc21	> 40	1 to 500
COc1ccc2c(c1)C=C(c1c(C(=O)N3CCOCC3)c(C)nn1C)Cn1c-2c(C2CCCCC2)c2ccc(C(=O)NS(=O)(=O)N(C)C)cc21	1 to 500	1 to 500
COc1ccc2c(c1)C=C(c1c(C(=O)N3CCOCC3)cnn1C1CC1)Cn1c-2c(C2CCCCC2)c2ccc(C(=O)NS(=O)(=O)C(C)C)cc21	1 to 500	1 to 500
COc1ccc2c(c1)C=C(c1c(C(=O)O)c(C)nn1C)Cn1c-2c(C2CCCCC2)c2ccc(C(=O)NS(=O)(=O)C(C)C)cc21	> 500	1 to 500
COc1ccc2c(c1)C=C(c1c(C(=O)N3CCOCC3)c(C)nn1C)Cn1c-2c(C2CCCCC2)c2ccc(C(=O)NS(=O)(=O)CC(C)C)cc21	1 to 500	1 to 500
COc1ccc2c(c1)C=C(c1c(C(=O)N3CCOCC3)c(C)nn1C)Cn1c-2c(C2CCCCC2)c2ccc(C(=O)NS(=O)(=O)C(C)C)cc21	1 to 500	1 to 500
COc1ccc2c(c1)C=C(c1c(C(=O)O)ccn1C(C)C)Cn1c-2c(C2CCCCC2)c2ccc(C(=O)NS(=O)(=O)C(C)C)cc21	> 500	1 to 500
CCCN1CCN(C(=O)c2ccn(C(C)C)c2C2=Cc3cc(OC)ccc3-c3c(C4CCCCC4)c4ccc(C(=O)NS(=O)(=O)C(C)C)cc4n3C2)CC1	1 to 500	1 to 500
COc1ccc2c(c1)C=C(c1c(C(=O)N3C[C@@H](C)O[C@@H](C)C3)ccn1C(C)C)Cn1c-2c(C2CCCCC2)c2ccc(C(=O)NS(=O)(=O)C(C)C)cc21	1 to 500	1 to 500
COc1ccc2c(c1)C=C(c1c(C(=O)N3CCOCC3)ccn1C(C)C)Cn1c-2c(C2CCCCC2)c2ccc(C(=O)NS(=O)(=O)C(C)C)cc21	1 to 500	1 to 500
CCOC(=O)c1ccoc1C1=Cc2cc(OC)ccc2-c2c(C3CCCCC3)c3ccc(C(=O)NS(=O)(=O)C(C)C)cc3n2C1	> 500	1 to 500
CCOC(=O)c1cc[nH]c1C1=Cc2cc(OC)ccc2-c2c(C3CCCCC3)c3ccc(C(=O)NS(=O)(=O)C(C)C)cc3n2C1	1 to 500	1 to 500

Reference: patent publication US8143243B2, “Compounds for the treatment of hepatitis C” (Bristol-Myers Squibb Company, priority 2007, dated 2012)
